Test results: patent publication US7732475B2, “Histone deacetylase inhibitors” (Takeda San Diego, Inc., priority 2005, dated 2010)

What follows are compounds tested against HDAC2 (Homo sapiens, UniProt Q92769) (assay: HDAC2 fluorescence inhibition assay (tBoc-Lys(Ac)-AMC)).
Sequence of HDAC2 (Q92769 with tags, fused parts or gaps): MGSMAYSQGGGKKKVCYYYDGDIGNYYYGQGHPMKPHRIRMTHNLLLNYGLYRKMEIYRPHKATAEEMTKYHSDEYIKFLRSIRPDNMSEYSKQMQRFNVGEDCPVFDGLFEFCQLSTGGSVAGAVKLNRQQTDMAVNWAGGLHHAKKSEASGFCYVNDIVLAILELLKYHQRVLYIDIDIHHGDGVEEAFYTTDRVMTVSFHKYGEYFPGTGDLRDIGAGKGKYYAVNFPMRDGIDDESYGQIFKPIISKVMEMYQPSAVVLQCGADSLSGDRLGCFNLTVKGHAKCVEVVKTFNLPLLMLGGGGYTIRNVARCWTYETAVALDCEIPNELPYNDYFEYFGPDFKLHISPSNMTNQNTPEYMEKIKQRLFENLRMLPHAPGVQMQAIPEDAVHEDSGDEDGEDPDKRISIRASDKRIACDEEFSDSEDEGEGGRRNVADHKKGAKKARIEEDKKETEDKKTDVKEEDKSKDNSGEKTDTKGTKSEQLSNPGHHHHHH

Q: `Nc1ccccc1NC(=O)c1ccc(Cn2cc(C(=O)Nc3ccccc3)cn2)cc1` [Example 127, 1-(4-(2-aminophenylcarbamoyl)benzyl)-N-phenyl-1H-pyrazole-4-carboxamide] was tested. Which IC50 did it give?
A: ≤ 50 nM

Q: For `Nc1ccccc1NC(=O)c1ccc(CCn2ncc3ccccc32)cc1` [Example 40, 4-(2-(1H-indazol-1-yl)ethyl)-N-(2-aminophenyl)benzamide], which IC50 is on record?
A: 100 to 500 nM

Q: For `CN(C)CCNC(=O)c1cnn(Cc2ccc(C(=O)Nc3ccccc3N)cc2)c1` [Example 140, 1-(4-(2-aminophenylcarbamoyl)benzyl)-N-(2-(dimethylamino)ethyl)-1H-pyrazole-4-carboxamide], which IC50 is on record?
A: 50 to 100 nM

Q: `Nc1ccc(-c2cccs2)cc1NC(=O)c1ccc(Cn2cc3ccccc3n2)cc1` [Example 111, 4-((2H-indazol-2-yl)methyl)-N-(2-amino-5-(thiophen-2-yl)phenyl)benzamide] was tested. Which IC50 did it give?
A: ≤ 50 nM

Q: Which IC50 does the source give for `COc1ccc2nn(Cc3ccc(C(=O)Nc4ccccc4N)cc3)cc2c1` [Example 79, N-(2-aminophenyl)-4-((5-methoxy-2H-indazol-2-yl)methyl)benzamide] here?
A: ≤ 50 nM

Q: For `Nc1ccc2c(cnn2Cc2ccc(C(=O)Nc3ccccc3N)cc2)c1` [Example 7, 4-((5-amino-1H-indazol-1-yl)methyl)-N-(2-aminophenyl)benzamide], which IC50 is on record?
A: ≤ 50 nM

Q: For `Nc1ccccc1NC(=O)c1ccc(Cn2cc3c(Cl)cccc3n2)cc1` [Example 43, N-(2-aminophenyl)-4-((4-chloro-2H-indazol-2-yl)methyl)benzamide], which IC50 is on record?
A: ≤ 50 nM

Q: With `Nc1ccccc1NC(=O)c1ccc(Cn2cc(C(=O)NCc3ccccc3)cn2)cc1` [Example 128, 1-(4-(2-aminophenylcarbamoyl)benzyl)-N-benzyl-1H-pyrazole-4-carboxamide] as the compound, how does the IC50 read?
A: ≤ 50 nM

Q: `Nc1ccccc1NC(=O)c1ccc(Cn2cc3cc(F)ccc3n2)cc1` [Example 38, N-(2-aminophenyl)-4-((5-fluoro-2H-indazol-2-yl)methyl)benzamide] was tested. Which IC50 did it give?
A: ≤ 50 nM

Q: With `CN(C)CCCNC(=O)c1cnn(Cc2ccc(C(=O)Nc3ccccc3N)cc2)c1` [Example 144, 1-(4-(2-aminophenylcarbamoyl)benzyl)-N-(3-(dimethylamino)propyl)-1H-pyrazole-4-carboxamide] as the compound, how does the IC50 read?
A: ≤ 50 nM

Q: With `CC(=O)Nc1ccc2c(cnn2Cc2ccc(C(=O)Nc3ccccc3N)s2)c1` [Example 110, 5-((5-acetamido-1H-indazol-1-yl)methyl)-N-(2-aminophenyl)thiophene-2-carboxamide] as the compound, how does the IC50 read?
A: 50 to 100 nM

Q: How did the IC50 turn out when `Nc1ccc2nn(Cc3ccc(C(=O)Nc4ccccc4N)cc3)cc2c1` [Example 9, 4-((5-amino-2H-indazol-2-yl)methyl)-N-(2-aminophenyl)benzamide] was run?
A: 50 to 100 nM

Q: `COC(=O)Nc1ccc2nn(Cc3ccc(C(=O)Nc4ccccc4N)cc3)cc2c1` [Example 12, Methyl 2-(4-((2-aminophenyl)carbamoyl)benzyl)-2H-indazol-5-ylcarbamate] was tested. Which IC50 did it give?
A: ≤ 50 nM

Q: `CCc1c2ccccc2nn1Cc1ccc(C(=O)Nc2ccccc2N)cc1` [Example 73, N-(2-aminophenyl)-4-((3-ethyl-2H-indazol-2-yl)methyl)benzamide] was tested. Which IC50 did it give?
A: 100 to 500 nM

Q: For `CC(c1ccc(C(=O)Nc2ccccc2N)cc1)n1ncc2ccccc21` (stereo not drawn) [Example 108, 4-(1-(1H-indazol-1-yl)ethyl)-N-(2-aminophenyl)benzamide], which IC50 is on record?
A: 50 to 100 nM

Q: How did the IC50 turn out when `Nc1ccccc1NC(=O)c1ccc(Cn2cc3c(C(F)(F)F)cccc3n2)cc1` [Example 118, N-(2-aminophenyl)-4-((4-(trifluoromethyl)-2H-indazol-2-yl)methyl)benzamide] was run?
A: 50 to 100 nM

Q: Which IC50 does the source give for `Cc1c2ccc(C(F)(F)F)cc2nn1Cc1ccc(C(=O)Nc2ccccc2N)cc1` [Example 92, N-(2-aminophenyl)-4-((3-methyl-6-(trifluoromethyl)-2H-indazol-2-yl)methyl)benzamide] here?
A: 50 to 100 nM

Q: `Cc1nn(Cc2ccc(C(=O)Nc3ccccc3N)cc2)c2ccccc12` [Example 28, N-(2-Aminophenyl)-4-((3-methyl-1H-indazol-1-yl)methyl)benzamide] was tested. Which IC50 did it give?
A: 50 to 100 nM

Q: How did the IC50 turn out when `Cc1cnn(Cc2ccc(C(=O)Nc3cc(-c4cccs4)ccc3N)cc2)c1` [Example 115, N-(2-amino-5-(thiophen-2-yl)phenyl)-4-((4-methyl-1H-pyrazol-1-yl)methyl)benzamide] was run?
A: ≤ 50 nM

Q: `Nc1ccccc1NC(=O)c1ccc(Cn2[nH]c3ccccc3c2=O)cc1` [Example 65, N-(2-aminophenyl)-4-((3-oxo-1H-indazol-2(3H)-yl)methyl)benzamide] was tested. Which IC50 did it give?
A: 100 to 500 nM

Q: How did the IC50 turn out when `Cc1ccc2c(c1)c(C)nn2Cc1ccc(C(=O)Nc2ccccc2N)cc1` [Example 80, N-(2-aminophenyl)-4-((3,5-dimethyl-1H-indazol-1-yl)methyl)benzamide] was run?
A: 50 to 100 nM

Q: With `Nc1ccccc1NC(=O)c1ccc(Cn2nc3ccccc3c2N)cc1` [Example 88, 4-((3-amino-2H-indazol-2-yl)methyl)-N-(2-aminophenyl)benzamide] as the compound, how does the IC50 read?
A: 50 to 100 nM

Q: `Nc1ccn(Cc2ccc(C(=O)Nc3ccccc3N)cc2)n1` [Example 133, 4-((3-amino-1H-pyrazol-1-yl)methyl)-N-(2-aminophenyl)benzamide] was tested. Which IC50 did it give?
A: 100 to 500 nM

Q: Which IC50 does the source give for `Nc1ccccc1NC(=O)c1ccc(Cn2cc3c(F)cc(F)cc3n2)cc1` [Example 45, N-(2-aminophenyl)-4-((4,6-difluoro-2H-indazol-2-yl)methyl)benzamide] here?
A: 50 to 100 nM

Q: Which IC50 does the source give for `Cc1c2ccccc2nn1Cc1ccc(C(=O)Nc2ccccc2N)cc1` [Example 29, N-(2-Aminophenyl)-4-((3-methyl-2H-indazol-2-yl)methyl)benzamide] here?
A: 50 to 100 nM

Q: `Nc1ccccc1NC(=O)c1ccc(CNc2cc[nH]n2)cc1` [Example 131, 4-((1H-pyrazol-3-ylamino)methyl)-N-(2-aminophenyl)benzamide] was tested. Which IC50 did it give?
A: ≥ 500 nM

Q: How did the IC50 turn out when `CCc1nn(Cc2ccc(C(=O)Nc3ccccc3N)cc2)c2ccccc12` [Example 72, N-(2-aminophenyl)-4-((3-ethyl-1H-indazol-1-yl)methyl)benzamide] was run?
A: 50 to 100 nM

Q: For `Nc1ccccc1NC(=O)c1ccc(Cn2cc(C(=O)NCCCO)cn2)cc1` [Example 153, 1-(4-(2-aminophenylcarbamoyl)benzyl)-N-(3-hydroxypropyl)-1H-pyrazole-4-carboxamide], which IC50 is on record?
A: ≤ 50 nM

Q: With `COc1ccc2cn(Cc3ccc(C(=O)Nc4ccccc4N)cc3)nc2c1` [Example 59, N-(2-aminophenyl)-4-((6-methoxy-2H-indazol-2-yl)methyl)benzamide] as the compound, how does the IC50 read?
A: ≤ 50 nM

Q: `Cc1c2cccc(F)c2nn1Cc1ccc(C(=O)Nc2ccccc2N)cc1` [Example 53, N-(2-aminophenyl)-4-((7-fluoro-3-methyl-2H-indazol-2-yl)methyl)benzamide] was tested. Which IC50 did it give?
A: 50 to 100 nM

Q: Which IC50 does the source give for `Nc1ccccc1NC(=O)c1ccc(Cn2ncc3ccccc32)cc1` [Example 1, 4-((1H-indazol-1-yl)methyl)-N-(2-aminophenyl)benzamide] here?
A: ≤ 50 nM

Q: How did the IC50 turn out when `Nc1ccccc1NC(=O)c1ccc(Cn2ncc3cc(NC(=O)OCCN4CCOCC4)ccc32)cc1` [Example 22, 2-Morpholinoethyl 1-(4-((2-aminophenyl)carbamoyl)benzyl)-1H-indazol-5-ylcarbamate] was run?
A: ≤ 50 nM

Q: `COc1ccc2cnn(Cc3ccc(C(=O)Nc4ccccc4N)cc3)c2c1` [Example 58, N-(2-aminophenyl)-4-((6-methoxy-1H-indazol-1-yl)methyl)benzamide] was tested. Which IC50 did it give?
A: 50 to 100 nM
